Tests used:
[1] = target: T1, human recombinant serotonin (5-Hydroxytryptamine) 5-HT6 receptor (Homo sapiens, UniProt P50406); test: Serotonin 5-HT6 radioligand binding ([3H]LSD); conditions: compound at 0.1 μM; HeLa cells; read-out: Percentage inhibition of ligand binding, Serotonin 5-HT6
T1 construct: expressed in transfected cells; host or cells: HeLa
Description: To evaluate in radioligand binding assays the activity of compounds of the invention, human recombinant serotonin (5-Hydroxytryptamine) 5-HT6 receptor expressed in human HeLa cells (Monsma, F. Jr. et al, Mol. Pharmacol. 43:320, 1993) in a modified Tris-HCl buffer (50 mM Tris-HCl, pH 7.4, 150 mM NaCl, 2 mM Ascorbic Acid, 0.001% BSA) was used. Compounds of the invention were incubated with 1.5 nM [3H]Lysergic acid diethylamide (LSD) for 120 min at 37° C. Non-specific binding was estimated in the presence of 5 μM Serotonin (5-HT). Receptor proteins were filtered and washed, the filters were then counted to determine [3H]LSD specifically bound. Compounds were screened at 1 μM or lower, using 1% DMSO as vehicle. Biochemical assay results are presented as the percent inhibition of specific binding in Table 4.

[2] = target: T2, human recombinant serotonin (5-Hydroxytryptamine) 5-HT2C receptor (Homo sapiens, UniProt P28335); test: Serotonin 5-HT2C radioligand binding ([3H]Mesulergine); conditions: compound at 0.1 μM; CHO K1 cells; read-out: Percentage inhibition of ligand binding, Serotonin 5-HT2C
T2 construct: expressed in transfected cells; host or cells: CHO-K1
T2 sequence (P28335 33-458): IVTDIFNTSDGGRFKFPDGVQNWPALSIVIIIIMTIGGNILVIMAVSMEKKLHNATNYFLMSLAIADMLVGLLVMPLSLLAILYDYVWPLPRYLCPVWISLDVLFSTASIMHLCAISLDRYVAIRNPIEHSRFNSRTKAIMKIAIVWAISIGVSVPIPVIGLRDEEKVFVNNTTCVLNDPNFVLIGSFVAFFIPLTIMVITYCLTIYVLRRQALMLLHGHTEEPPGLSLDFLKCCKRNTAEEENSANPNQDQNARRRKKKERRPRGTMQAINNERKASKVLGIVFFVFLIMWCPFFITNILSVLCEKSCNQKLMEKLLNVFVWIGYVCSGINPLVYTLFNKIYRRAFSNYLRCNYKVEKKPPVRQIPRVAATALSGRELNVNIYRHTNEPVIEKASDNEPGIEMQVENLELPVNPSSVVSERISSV
Description: To evaluate in radioligand binding assays the activity of compounds of the invention, human recombinant serotonin (5-Hydroxytryptamine) 5-HT2C receptor expressed in Chinese hamster ovary (CHO) K1 cells (Wolf, W. et al, J. Neurochem. 69:1449, 1997) in a modified Tris-HCl buffer (50 mM Tris-HCl, pH 7.4, 0.1% Ascorbic Acid, 10 μM Pargyline) was used. Compounds of the invention were incubated with 1 nM [^3H]Mesulergine for 60 min at 25° C. Non-specific binding was estimated in the presence of 1 μM Mianserin. Receptor proteins were filtered and washed, the filters were then counted to determine [^3H]Mesulergine specifically bound. Compounds were screened at 1 μM or lower, using 1% DMSO as vehicle. Biochemical assay results are presented as the percent inhibition of specific binding in Table 4.

[3] = target: T3, human recombinant histamine H1 receptor (Homo sapiens, UniProt P35367); test: Histamine H1 radioligand binding ([3H]Pyrilamine); conditions: compound at 0.1 μM; 1.2 nM [3H]Pyrilamine; CHO K1 cells; read-out: Histamine H1 Binding (0.1 μM), percentage inhibition
T3 construct: expressed in transfected cells; host or cells: CHO-K1
Description: To evaluate in radioligand binding assays the activity of compounds of the invention, human recombinant histamine H1 receptor expressed in Chinese hamster ovary (CHO) K1 cells (De Backer, M. et al, Biochem. Biophys. Res. Comm. 197(3):1601, 1993) in a modified Tris-HCl buffer (50 mM Tris-HCl, pH 7.4, 2 mM MgCl2, 100 mM NaCl, 250 mM Sucrose) was used. Compounds of the invention were incubated with 1.2 nM [^3H]Pyrilamine for 180 min at 25° C. Non-specific binding was estimated in the presence of 1 μM Pyrilamine. Receptor proteins were filtered and washed, the filters were then counted to determine [^3H]Pyrilamine specifically bound. Compounds were screened at 1 μM or lower, using 1% DMSO as vehicle. Biochemical assay results are presented as the percent inhibition of specific binding in Table 2.

[4] = target: T4, human recombinant dopamine D2L receptor (Homo sapiens, UniProt P14416); test: Dopamine D2L radioligand binding ([3H]Spiperone); conditions: compound at 1 μM; CHO cells; read-out: Percentage inhibition of ligand binding, Dopamine D2L
T4 construct: expressed in transfected cells; host or cells: CHO
Description: To evaluate in radioligand binding assays the activity of compounds of the invention, human recombinant dopamine D2L receptor expressed in Chinese hamster ovary (CHO) cells (Grandy, D. et al, Proc. Natl. Acad. Sci. USA. 86:9762, 1989; Hayes, G. et al, Mol. Endocrinol. 6:920, 1992) in a modified Tris-HCl buffer (50 mM Tris-HCl, pH 7.4, 1.4 mM Ascorbic Acid, 0.001% BSA, 150 mM NaCl) was used. Compounds of the invention were incubated with 0.16 nM [^3H]Spiperone for 120 min at 25° C. Non-specific binding was estimated in the presence of 10 μM Haloperidol. Receptor proteins were filtered and washed, the filters were then counted to determine [^3H]Spiperone specifically bound. Compounds were screened at 1 μM or lower, using 1% DMSO as vehicle. Biochemical assay results are presented as the percent inhibition of specific binding in Table 3.

T1 sequence (P50406 whole entry): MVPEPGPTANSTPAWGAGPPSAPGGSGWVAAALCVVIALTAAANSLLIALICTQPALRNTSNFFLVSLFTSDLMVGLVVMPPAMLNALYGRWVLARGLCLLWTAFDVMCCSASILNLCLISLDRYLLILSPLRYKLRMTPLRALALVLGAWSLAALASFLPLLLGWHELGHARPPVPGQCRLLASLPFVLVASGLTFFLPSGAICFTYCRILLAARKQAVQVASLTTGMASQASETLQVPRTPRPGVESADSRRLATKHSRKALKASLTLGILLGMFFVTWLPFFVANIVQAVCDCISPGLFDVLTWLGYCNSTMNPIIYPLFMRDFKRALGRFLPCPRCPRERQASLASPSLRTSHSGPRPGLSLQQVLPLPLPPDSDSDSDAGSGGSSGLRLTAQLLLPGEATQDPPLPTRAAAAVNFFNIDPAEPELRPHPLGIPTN
T4 sequence (P14416 whole entry): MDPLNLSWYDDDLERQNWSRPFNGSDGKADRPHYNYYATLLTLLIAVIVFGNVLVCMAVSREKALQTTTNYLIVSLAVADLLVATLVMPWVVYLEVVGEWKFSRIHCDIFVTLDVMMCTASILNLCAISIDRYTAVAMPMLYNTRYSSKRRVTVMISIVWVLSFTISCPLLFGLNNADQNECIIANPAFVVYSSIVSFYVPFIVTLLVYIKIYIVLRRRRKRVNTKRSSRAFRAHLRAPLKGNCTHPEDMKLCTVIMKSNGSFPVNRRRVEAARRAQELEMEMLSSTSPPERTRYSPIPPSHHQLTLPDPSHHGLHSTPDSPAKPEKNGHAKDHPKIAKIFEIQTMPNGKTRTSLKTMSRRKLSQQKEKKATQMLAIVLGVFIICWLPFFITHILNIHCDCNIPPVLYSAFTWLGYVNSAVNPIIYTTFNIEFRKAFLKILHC
T3 sequence (P35367 whole entry): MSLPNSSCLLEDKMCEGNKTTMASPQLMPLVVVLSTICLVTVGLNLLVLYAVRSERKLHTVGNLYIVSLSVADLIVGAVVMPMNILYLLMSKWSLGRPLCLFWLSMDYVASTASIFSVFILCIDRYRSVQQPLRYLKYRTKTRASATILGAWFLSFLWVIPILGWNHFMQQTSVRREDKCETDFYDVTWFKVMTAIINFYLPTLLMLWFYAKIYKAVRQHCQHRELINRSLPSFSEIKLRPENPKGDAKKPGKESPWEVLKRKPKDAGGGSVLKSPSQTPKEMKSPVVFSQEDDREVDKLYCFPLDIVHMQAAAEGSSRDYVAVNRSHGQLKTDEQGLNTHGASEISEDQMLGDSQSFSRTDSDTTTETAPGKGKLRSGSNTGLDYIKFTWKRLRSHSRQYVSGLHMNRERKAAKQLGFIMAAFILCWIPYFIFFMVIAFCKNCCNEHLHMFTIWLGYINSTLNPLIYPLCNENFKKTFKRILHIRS

SMILES: Cc1ccc2c(c1)c1c3n2CC(c2ccncc2)=CCC3(C)CN(C)C1 (stereo not drawn) [Compound 11, 2,3a,10-trimethyl-6-pyridin-4-yl-1,2,3,3a,4,7-hexahydro-2,7a-diaza-cyclohepta[jk]fluorene]
- inhibition at 0.1 µM [1]: 5%
- inhibition at 0.1 µM [2]: 7%
- inhibition at 0.1 µM [3]: 2%
- inhibition at 1 µM [4]: 3%

SMILES: Cc1ccc2c(c1)c1c3n2C(c2ccccc2)=CCC3(C)CN(C)C1 (stereo not drawn) [Compound 10, 2,3a,10-trimethyl-6-phenyl-2,3,3a,4-tetrahydro-1H-indolo[3,2,1-ij][1,6]naphthyridine]
- inhibition at 0.1 µM [1]: 7%
- inhibition at 0.1 µM [2]: 17%
- inhibition at 0.1 µM [3]: 3%
- inhibition at 1 µM [4]: 9%

SMILES: Cc1ccc2c(c1)c1c3n2C(c2ccccc2)CCC3(C)CN(C)C1 (stereo not drawn) [Compound 12, 2,3a,10-trimethyl-6-phenyl-2,3,3a,4,5,6-hexahydro-1H-indolo[3,2,1-ij][1,6]naphthyridine]
- inhibition at 0.1 µM [1]: 21%
- inhibition at 0.1 µM [2]: 11%
- inhibition at 0.1 µM [3]: 20%
- inhibition at 1 µM [4]: 5%

Source: patent US9040519B2, “Fused tetracyclic pyrido [4,3-B] indole and pyrido [3,4-B] indole derivatives and methods of use” (Medivation Technologies, Inc., priority 2010, dated 2015)
